The subject of experiment [1] is cellular pERK in Kuramochi (WT KRAS) cells. Nature of the experiment: Cell based pERK assay, Kuramochi. To be noted: Kuramochi (WT KRAS), 2 hours incubation, HTRF phospho-ERK1/2; read-out: Kuramochi pERK EC50. In short, it runs like this:
(§1)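 Cells seeded overnight (5000 AsPC-1 or 7500 others per well; RPMI/10% FBS, DMEM/10% FBS for MIA-PaCa-2), treated with 1:3 serial dilutions for 2 h at 37 °C. Phospho-ERK1/2 (Thr202/Tyr204) measured by HTRF (665/615 nm) after overnight lysis, normalized to DMSO and saturating known-inhibitor controls.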

Experiment [2] relates to cellular pERK in ASPC-1 (KRAS G12D) cells. Nature of the experiment: Cell based pERK assay, ASPC-1. To be noted: Homo sapiens, ASPC1; ASPC-1 (KRAS G12D), 2 hours incubation, HTRF phospho-ERK1/2; read-out: AsPC1 pERK EC50. An outline of the steps:
as §1
A general note: In TR-FRET formats the signal depends on donor and acceptor labels being close together.

The target of experiment [3] is GDP-loaded KRAS-G12D (Homo sapiens, UniProt P01116, G12D). Nature of the experiment: KRAS (GDP) biochemical TR-FRET probe displacement assay, G12D. The conditions noted are these: 2 hours. It is filed as binding. An outline of the steps: (§2)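 GDP-loaded KRAS protein pre-incubated 30 min with 1:3 serially diluted compound in 50 mM Hepes pH 7.4, 150 mM NaCl, 5 mM MgCl2, 0.005% Tween-20. Eu-streptavidin and Cy-5 probe then added, 2 h at room temperature, TR-FRET ratio 665/615 nm read. Ratios normalized to saturating known inhibitor and DMSO, plotted against log concentration.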
GDP-loaded KRAS-G12D, sequence (P01116 1-188 isoform P01116-2 G12D): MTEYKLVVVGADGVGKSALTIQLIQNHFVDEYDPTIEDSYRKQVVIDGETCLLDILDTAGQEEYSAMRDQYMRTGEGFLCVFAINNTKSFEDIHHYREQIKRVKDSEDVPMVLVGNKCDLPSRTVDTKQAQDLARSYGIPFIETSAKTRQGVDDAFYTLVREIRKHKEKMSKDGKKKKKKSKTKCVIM

For experiment [4], the target named is GDP-loaded KRAS-G12C (Homo sapiens, UniProt P01116, G12C). Nature of the experiment: KRAS (GDP) biochemical TR-FRET probe displacement assay, G12C. The experiment is classed as binding. To be noted: 2 hours. An outline of the steps: as §2
GDP-loaded KRAS-G12C, sequence (P01116 1-188 isoform P01116-2 G12C): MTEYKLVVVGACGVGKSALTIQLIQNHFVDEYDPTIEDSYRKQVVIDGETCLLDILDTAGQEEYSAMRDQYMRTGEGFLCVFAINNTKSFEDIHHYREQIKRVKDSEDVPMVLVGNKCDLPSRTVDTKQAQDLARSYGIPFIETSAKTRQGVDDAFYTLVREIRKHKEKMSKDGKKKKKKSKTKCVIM
Experiment [5] has as its target GDP-loaded wild-type KRAS (WT) (Homo sapiens, UniProt P01116). Nature of the experiment: KRAS (GDP) biochemical TR-FRET probe displacement assay, WT. It is filed as binding. To be noted: 2 hours. In short, it runs like this:
as §2

Experiment [6] concerns the target GDP-loaded KRAS-G12V (Homo sapiens, UniProt P01116, G12V). Nature of the experiment: KRAS (GDP) biochemical TR-FRET probe displacement assay, G12V. The experiment is classed as binding. The conditions noted are these: 2 hours. An outline of the steps:
as §2

The subject of experiment [7] is cellular pERK in MIA-PaCa-2 (KRAS-G12C) cells. Nature of the experiment: Cell based pERK assay, MIA-PaCa-2. To be noted: Homo sapiens; MIA-PaCa-2 (KRAS-G12C), 2 hours incubation, HTRF phospho-ERK1/2; read-out: MIAPaCa2 pERK EC50. An outline of the steps:
as §1

The test system of experiment [8] is cellular pERK in NCI-H441 (KRAS-G12V) cells. Nature of the experiment: Cell based pERK assay, NCI-H441. To be noted: Homo sapiens; NCI-H441 (KRAS-G12V), 2 hours incubation, HTRF phospho-ERK1/2; read-out: H441 PERK EC50. An outline of the steps:
as §1

Some results are limits rather than exact numbers.

Our source for the EC50 and IC50 values is patent US20250042922A1, “KRAS MODULATING COMPOUNDS” (priority 2023, published 2025).

GDP-loaded KRAS-G12V, sequence (P01116 1-188 isoform P01116-2 G12V): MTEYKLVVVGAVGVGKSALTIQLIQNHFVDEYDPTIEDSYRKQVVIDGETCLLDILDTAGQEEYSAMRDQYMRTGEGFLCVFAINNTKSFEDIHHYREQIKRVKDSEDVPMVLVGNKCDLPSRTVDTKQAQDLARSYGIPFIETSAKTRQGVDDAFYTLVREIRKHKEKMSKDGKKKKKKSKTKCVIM
GDP-loaded wild-type KRAS (WT), sequence (P01116 1-188 isoform P01116-2): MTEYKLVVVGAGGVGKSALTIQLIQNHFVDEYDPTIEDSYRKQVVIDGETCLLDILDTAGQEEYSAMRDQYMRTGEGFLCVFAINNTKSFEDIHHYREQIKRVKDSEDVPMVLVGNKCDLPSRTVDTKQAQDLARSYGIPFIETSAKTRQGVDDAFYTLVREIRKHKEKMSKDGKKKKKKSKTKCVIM

As usually defined, the EC50 is the concentration needed to bring the measured effect to its halfway point. What is called IC50 is the point on the concentration scale where inhibition reaches its midpoint. Low values mean inhibition by little substance, high ones a need for much substance. With `C#Cc1c(F)ccc2cc(O)cc(-c3c(F)c4c5c(nc(OC[C@@]67CCCN6C[C@H](F)C7)nc5c3F)N3C[C@@]5(F)CC[C@H](N5)[C@H]3CC4)c12` [Example 4-41, 5-ethynyl-6-fluoro-4-((1S,4S,14aR)-4,10,12-trifluoro-8-(((2R,7aS)-2-fluorotetrahydro-1H-pyrrolizin-7a(5H)-yl)methoxy)-1,2,3,4,5,13,14,14a-octahydro-1,4-epiminoazepino[1′,2′:1,7]azepino[2,3,4-de]quinazolin-11-yl)naphthalen-2-ol], the EC50 worked out at 8.27 nM in experiment [1], 29.7 nM in experiment [2], 0.501 nM in experiment [7] and 4.42 nM in experiment [8]. Further, the IC50 in experiment [3] amounted to 1.41 nM; in experiment [4], 0.386 nM; in experiment [5], 0.5 nM; in experiment [6] it was 0.949 nM.
For the compound `C[C@H]1Cc2nc(-c3cc(N)cc4ccc(F)c(Cl)c34)c(F)c3nc(OCC45CCCN4CCC5)nc(c23)N2C[C@@]3(F)CC[C@](F)(N3)[C@H]12` [Example 5-3], the concentration giving a half-maximal response (EC50) in experiment [1] came to 1.45 nM; in experiment [2], 31.3 nM; in experiment [7] it was 0.897 nM; in experiment [8] it was 9.64 nM. Further, the IC50 stood at 7.83 nM in experiment [3], 1.55 nM in experiment [4], 0.266 nM in experiment [5] and 2.96 nM in experiment [6].
For the compound `Nc1cc(-c2nc3c4c(nc(OCC56CCCN5CCC6)nc4c2F)N2C[C@@]4(F)CC[C@](F)(N4)[C@H]2CCC3)c2c(OC(F)(F)F)c(F)ccc2c1` [Example 5-5, 6-fluoro-4-[(4S,7R,8R)-4,7,15-trifluoro-18-(1,2,3,5,6,7-hexahydropyrrolizin-8-ylmethoxy)-2,13,17,19,21-pentazapentacyclo[10.7.1.14,7.02,8.016,20]henicosa-1(19),12(20),13,15,17-pentaen-14-yl]-5-(trifluoromethoxy)naphthalen-2-amine], the EC50 in experiment [1] was determined as 5.9 nM; in experiment [2], 519 nM; in experiment [7], 33.6 nM; in experiment [8], 221 nM. The IC50 in experiment [3] is not below 100 nM; in experiment [4], 21.6 nM; in experiment [5] it was 18.5 nM; in experiment [6], 85 nM.
Take `C#Cc1c(F)c(F)cc2cc(N)cc(-c3nc4c5c(nc(OCC67CCCN6CCC7)nc5c3F)N3C[C@@]5(F)CC[C@](F)(N5)[C@@H]3[C@@H](C)C4)c12` [Example 5-7, 5-ethynyl-6,7-difluoro-4-((5S,5aS,6R,9S)-1,6,9-trifluoro-5-methyl-12-((tetrahydro-1H-pyrrolizin-7a(5H)-yl)methoxy)-4,5,5a,6,7,8,9,10-octahydro-3,10a,11,13,14-pentaaza-6,9-methanonaphtho[1,8-ab]heptalen-2-yl)naphthalen-2-amine]: the EC50 in experiment [1] came out at 2.75 nM; in experiment [2] it was 12.4 nM; in experiment [7], 0.378 nM; in experiment [8] it was 3.1 nM. Moreover, the IC50 in experiment [3] was found to be 1.03 nM; in experiment [4], 0.311 nM; in experiment [5] it was 0.116 nM; in experiment [6], 0.723 nM.
